Assay results as given in patent publication US20230131339A1, “EPI-X4 BASED PEPTIDES AND DERIVATIVES THEREOF” (Universitaet Ulm, priority 2020, published 2023).
Where a SMILES comes first, the peptide text is derived from it. Where no end group is shown, it is not given here. Side-chain parts run from the residue outwards. [ ]: non-standard residue; d: D form. The star is where a group is joined. Palmitoyl = CCCCCCCCCCCCCCCC(=O)*; Glu = glutamate linker

Assays:
[1] = test system: CXCL12 induced Ca2+-signalling; assay: Ca++ signaling in BCR-ABL-transformed murine bone marrow cells; type: cell-based; details: 1 μM
Procedure: Fifth, it was shown that the peptide derivatives inhibit calcium-signaling. CXCL12 stimulation of CXCR4 expressing B-cells leads to a strong calcium-release. In the presence of CXCR4 antagonists this response is reduced.
For calcium measurement, 1×10^6 BCR-ABL-transformed murine bone marrow cells were incubated with 5 μg/mL of Indo-1 (Molecular Probes) and 0.5 μg/mL of pluronic F-127 (Molecular Probes) in Iscove's medium supplemented with 1% FCS (Pan Biotech) at 37° C. for 45 min. Cells were then washed by centrifugation and the cell pellets were resuspended in Iscove's medium with 1% FCS and treated with the EPI-X4 derivatives (1 μM or 0.5 μM) for 10 minutes at room temperature. Cells were pre-warmed for 5 minutes at 37° C. Calcium flux was assessed by FACS measurement at BD LSR Fortessa. After 30 seconds of baseline recording, CXCR4-dependent calcium signaling was determined by stimulating with 100 ng/ml of mouse SDF-1a (PeproTech).

[2] = test system: CXCL12 induced migration of T-cells; assay: Migration assay (transwell, Jurkat cells); type: cell-based
Procedure: For each peptide, three independent experiments were performed. The error bars refer to the standard deviation.
Migration assay. Migration assays were performed using 96-well transwell assay plates (Corning Incorporated, Kennebunk, Me., USA) with 5 μm polycarbonate filters. […] Next, 75 μL (0.5×10^5 cells) of Jurkat cells (in assay buffer), together with/without the compounds, were added into the upper chambers. After 4 h at 37° C. (5% CO2), 100 μL of the lower chambers were transferred to a fresh 96 V-well plate and analyzed with Cell-Titer-Glo® assay (Promega, Madison, Wis., USA). The percentage of migrated cells was calculated as described by Balabanian et al. (2005). In order to obtain the relative migration in %, the percentage of migrated cells were normalized to the CXCL12-only control.

[3] = Functional stability assay in human plasma; details: human, plasma
Procedure: Fourth, the stability of peptides in human plasma and whole human blood was tested (FIG. 4). The functional stability of EPI-X4 (SEQ ID NO.: 1) derivatives was screened using a CXCR4 antibody-based screening approach. Peptides were diluted in full human plasma or blood (>99%) and the functional activity was then measured after either 2 hours or 8 hours and compared to a sample that was not incubated in plasma or blood.
In this test, the peptides were incubated in human plasma for a certain time period.
Stability assay. Whole blood was collected from healthy donors in EDTA tubes and directly used or subsequently centrifuged for 15 min at 2,500×g to obtain plasma. Plasma from 6 donors was pooled and stored in aliquots at −80° C. Compounds were 200-fold diluted in human plasma or whole human blood to reach final concentrations of 20 μM. The t=0 sample was immediately taken and stored at −80° C. Plasma/compound or blood/compound mixture was then transferred to 37° C. and shook at 350 rpm. At given time points samples were taken and stored at −80° C.°. For measuring the functional activity of the plasma/peptide samples, the mixtures were thawed and diluted in ice cold PBS. 12G5-APC antibody competition was then performed as described before. For blood/peptide functional stability, samples were thawed and centrifuged at 14,000 rpm to remove cells and debris. The supernatant was then diluted in PBS and 12G5-antibody competition assay was performed. After the 2 hours incubation, the cells were washed and 50 μl of 1-step-Fix/Lyse solution (Thermo Fisher #00-5333-54) was added for 15 minutes at room temperature. Afterwards cells were washed again and analyzed for bound antibody.

[4] = test system: CXCL12-induced AKT signaling; assay: ERK/AKT signaling assay in SupT1 cells: AKT phosphorylation; type: cell-based
Procedure: (§1) Third, the activity of the claimed EPI-X4 derivatives was tested by the effect on CXCL12/CXCR4-mediated ERK (Extracellular-signal Regulated Kinases) and AKT (a serine/threonine-protein kinase) signaling (FIG. 3). In that assay CXCR4 expressing cells are stimulated with the CXCR4 chemokine-ligand CXCL12, which subsequently leads to phosphorylation of ERK and AKT. Preincubation of cells with CXCR4-antagonists blocks those pathways. […] Two or three independent experiments were carried out in triplicates for each peptide in each assay. The error bars refer to the standard deviation.
(§2) ERK/AKT signaling assay. CXCL12 induced ERK and AKT phosphorylation was determined in SupT1 cells. For this, 100,000 cells were seeded per well in a 96-V well plate in 100 μl medium supplemented with 1% FCS. Cells were incubated for 2 hours at 37° C. before 5 μl of compounds were added. After 15 min incubation at 37° C. cells were stimulated by adding 5 μl CXCL12 diluted in PBS to reach a final concentration of 100 ng/ml. Cells were further incubated for 2 min before the reaction was stopped by adding 20 μl of 10% PFA. Cells were fixed for 15 min at 4° C. before PFA was removed and cells permeabilized by adding 100 μl ice cold methanol. After 15 min at 4° C. the methanol was removed, cells were washed and 30 μl primary antibody was added (phospho-p44/42 MAPK (Erk1) (Tyr204)/(Erk2) (Tyr187) (D1H6G) mouse mAb #5726; phosphor-Akt (Ser473) (193H12) rabbit mAb #4058 Cell Signaling) for 1 hour at 4° C. After the antibody was removed and cells were washed secondary antibody was added for 30 min. Cells were washed afterwards and subsequently analyzed by flow cytometry.

[5] = test system: CXCL12-induced ERK signaling; assay: ERK/AKT signaling assay in SupT1 cells: ERK phosphorylation; type: cell-based
Procedure: as §1, §2

[6] = target: T1, CXC chemokine receptor type 4 (CXCR4) (human, UniProt P61073 1-352); assay: competition
T1 chain: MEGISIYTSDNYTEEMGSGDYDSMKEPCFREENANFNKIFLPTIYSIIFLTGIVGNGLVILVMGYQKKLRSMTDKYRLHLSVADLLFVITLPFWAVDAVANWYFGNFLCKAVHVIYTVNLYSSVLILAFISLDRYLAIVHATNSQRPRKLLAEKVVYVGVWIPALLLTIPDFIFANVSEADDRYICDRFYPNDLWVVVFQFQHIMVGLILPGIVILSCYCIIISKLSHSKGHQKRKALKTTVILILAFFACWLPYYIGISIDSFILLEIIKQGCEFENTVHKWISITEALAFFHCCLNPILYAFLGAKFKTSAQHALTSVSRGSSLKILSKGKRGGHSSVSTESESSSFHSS

[7] = target: T2, CXC chemokine receptor type 4 (CXCR4) (human, UniProt P61073 1-352); assay: 12G5-APC antibody competition on SupT1 cells, flow cytometry
T2 construct: whole, on cells
Procedure: To the right of the diagrams, an assignment of the curves to the tested peptides is explained. […] Three independent experiments were carried out for each peptide in each assay. The error bars refer to the standard deviation.
Antibody competition assay. Competition of compounds with antibody binding was performed on SupT1 cells. For that cells were washed in PBS containing 1% FCS and 50,000 cells were then seeded per well in a 96 V-well plate. Buffer was removed and plates were precooled at 4° C. […] The antibody was used at a concentration closed to its determined Kd. 15 μl compounds were then added to the cells and 15 μl antibody immediately afterwards. Plates were incubated at 4° C. in the dark for 2 hours. Afterwards cells were washed twice with PBS containing 1% FCS and fixed with 2% PFA. Antibody binding was analyzed by flow cytometry (FACS CytoFLEX; Beckman Coulter®).

[8] = target: T2, CXC chemokine receptor type 4 (CXCR4); assay: cell-based or functional assay
[9] = target: T1, CXC chemokine receptor type 4 (CXCR4); assay: 12G5 antibody competition

Which “reduction of CXCL12 induced calcium-signaling” value [1] does the source give for `CCCCCCCCCCCCCCCC(=O)NCCCC[C@H](NC(=O)[C@H](CCCNC(=N)N)NC(=O)[C@H](CO)NC(=O)[C@H](Cc1c[nH]c2ccccc12)NC(=O)[C@H](CCCNC(=N)N)NC(=O)[C@H](CC(C)C)NC(=O)[C@@H](N)[C@@H](C)CC)C(N)=O` [JM #170, ILRWSRK(Pal)-NH2] (H-ILRWSRK(Palmitoyl)-NH2) here?
Its value is “almost completely blocked calcium-signaling”.

Which “inhibition of CXCL12 induced migration of T-cells (in words)” value [2] does the source give for `CC[C@H](C)[C@H](N)C(=O)N[C@@H](CC(C)C)C(=O)N[C@@H](CCCNC(=N)N)C(=O)N[C@@H](Cc1c[nH]c2ccccc12)C(=O)N[C@@H](CO)C(=O)N[C@@H](CCCNC(=N)N)C(=O)N[C@@H](CCCCN)C(N)=O` [JM #118, ILRWSRK-NH2] (H-ILRWSRK-NH2) here?
The value was “even more effective than the full-length peptide”.

What about the “functional stability in human plasma (in words)” value [3] of the same molecule?
Its value is “rapidly inactivated in plasma”.

Which results are given for `CC[C@H](C)[C@H](N)C(=O)N[C@@H](CC(C)C)C(=O)N[C@@H](CCCNC(=N)N)C(=O)N[C@@H](Cc1c[nH]c2ccccc12)C(=O)N[C@@H](CO)C(=O)N[C@@H](CCCNC(=N)N)C(=O)N[C@@H](CCCCN)C(=O)N[C@@H](CCSC)C(=O)N1CCC[C@H]1C(=O)N[C@@H](CS)C(=O)N[C@@H](CC(C)C)C(=O)N[C@@H](CO)C(=O)O` [JM #18] (H-ILRWSRKMPCLS-OH; C-terminus assumed)?
reduction of CXCL12-induced AKT signaling ([4]; 0.1 μM): about 40%; reduction of CXCL12-induced AKT signaling ([4]; 1 μM): ~70%; reduction of CXCL12-induced ERK signaling ([5]; 0.1 μM): about 40%; reduction of CXCL12-induced ERK signaling ([5]; 1 μM): ~70%

Which “inhibition of CXCL12 induced migration of T-cells (in words)” value [2] does the source give for `CC[C@H](C)[C@H](N)C(=O)N[C@@H](CC(C)C)C(=O)N[C@@H](CCCNC(=N)N)C(=O)N[C@@H](Cc1c[nH]c2ccccc12)C(=O)N[C@@H](CO)C(=O)N[C@@H](CCCNC(=N)N)C(=O)N[C@@H](CCCCN)C(=O)N[C@@H](CC(C)C)C(=O)N1CCC[C@H]1C(N)=O` [JM #114] (H-ILRWSRKLP-NH2) here?
The value was “even more effective than the full-length peptide”.

What about the “functional stability in human plasma (in words)” value [3] of the same molecule?
Its value is “rapidly inactivated in plasma”.

With `CCCCCCCCCCCCCCCC(=O)NCCCC[C@H](NC(=O)[C@H](CCCCN)NC(=O)[C@H](CO)NC(=O)[C@H](Cc1c[nH]c2ccccc12)NC(=O)[C@H](CCCNC(=N)N)NC(=O)[C@@H](NC(=O)[C@@H](N)[C@@H](C)CC)C(C)C)C(=O)N[C@H](C(=O)N1CCC[C@H]1C(=O)N[C@@H](CS)C(=O)N[C@H](C(=O)N[C@@H](CO)C(=O)O)C(C)C)C(C)C` [JM #169, IVRWSKK(Pal)VPCVS] (H-IVRWSKK(Palmitoyl)VPCVS-OH; C-terminus assumed) as the molecule, how does the “reduction of CXCL12-induced AKT signaling” value ([4]; 0.1 μM) read?
The value was 85%.

What about the “reduction of CXCL12-induced AKT signaling” value ([4]; 1 μM) of the same molecule?
The value was “completely”.

And the “reduction of CXCL12-induced ERK signaling” value ([5]; 0.1 μM)?
The value was “over 70%”.

What about the “reduction of CXCL12-induced ERK signaling” value ([5]; 1 μM) of the same molecule?
The value was “almost completely blocked”.

With ILRWSRK([Glu-Palmitoyl])-NH2 [JM#192] as the molecule, how does the IC50 [6] read?
Its IC50 is 4 nM.

B1: JM#167 (peptide)
peptide: IVRWSKK(Palmitoyl)VP-NH2
modifications: N-terminus assumed
SMILES: CCCCCCCCCCCCCCCC(=O)NCCCC[C@H](NC(=O)[C@H](CCCCN)NC(=O)[C@H](CO)NC(=O)[C@H](Cc1c[nH]c2ccccc12)NC(=O)[C@H](CCCNC(=N)N)NC(=O)[C@@H](NC(=O)[C@@H](N)[C@@H](C)CC)C(C)C)C(=O)N[C@H](C(=O)N1CCC[C@H]1C(N)=O)C(C)C
Which “fold more effective binding than EPI-X4” value [7] does the source give for B1 here?
The value was greater than 2000 fold.

And the “fold more effective than WSC02” value [7]?
The value was roughly 300 fold.

B2: JM#178 (peptide)
peptide: [dL]MRWSRK(Palmitoyl)MP-NH2
modifications: N-terminus assumed
SMILES: CCCCCCCCCCCCCCCC(=O)NCCCC[C@H](NC(=O)[C@H](CCCNC(=N)N)NC(=O)[C@H](CO)NC(=O)[C@H](Cc1c[nH]c2ccccc12)NC(=O)[C@H](CCCNC(=N)N)NC(=O)[C@H](CCSC)NC(=O)[C@H](N)CC(C)C)C(=O)N[C@@H](CCSC)C(=O)N1CCC[C@H]1C(N)=O
What does the source list for B2?
IC50, HIV inhibition assay [8]: 5 to 10 nM; fold more effective binding than EPI-X4 [7]: > 2000 fold; fold more effective than WSC02 [7]: ~300 fold

For [dL]MRWSRKMPCVS [JM#36], which IC50 [9] is on record?
Its IC50 is 305 nM.

Which IC50 [9] does the source give for [dM]LRWSRKK([Glu-Palmitoyl])-NH2 [JM#197] here?
The IC50 was 5 nM.

With ILRWSRK(Ac)LPCVS [JM#200] as the molecule, how does the IC50 [6] read?
The IC50 was 213 nM.

What about the “IC50, HIV inhibition assay” value [8] of the same molecule?
The value was 50 to 150 nM.

With [dL]MRWSRKK([Glu-Palmitoyl])-NH2 [JM#195] as the molecule, how does the IC50 [9] read?
The IC50 was 3 nM.

Which results are given for [dI]LRWSRKLP-NH2 [JM#174]?
IC50 [9]: 480 nM; IC50, HIV inhibition assay [8]: > 150 nM
